US10364256B2 (GlaxoSmithKline Intellectual Property Development Limited, priority 2015, dated 2019)
Read-outs that look alike come from different tables or passages of the source.

Key:
[1] = molecular target: T1, full length Keap1 protein / full length NRF2 protein (Homo sapiens, UniProt Q14145); test: NRF2-Keap1 TR-FRET Low Protein Assay; type: binding; conditions: 1.25 nM Keap1 FlagHis and 2.5 nM biotin-NRF2 added
T1 construct: full length NRF2 protein and full length Keap1 protein (Keap1 exists a dimer) are used; His
T1 sequence (Q14145 whole entry): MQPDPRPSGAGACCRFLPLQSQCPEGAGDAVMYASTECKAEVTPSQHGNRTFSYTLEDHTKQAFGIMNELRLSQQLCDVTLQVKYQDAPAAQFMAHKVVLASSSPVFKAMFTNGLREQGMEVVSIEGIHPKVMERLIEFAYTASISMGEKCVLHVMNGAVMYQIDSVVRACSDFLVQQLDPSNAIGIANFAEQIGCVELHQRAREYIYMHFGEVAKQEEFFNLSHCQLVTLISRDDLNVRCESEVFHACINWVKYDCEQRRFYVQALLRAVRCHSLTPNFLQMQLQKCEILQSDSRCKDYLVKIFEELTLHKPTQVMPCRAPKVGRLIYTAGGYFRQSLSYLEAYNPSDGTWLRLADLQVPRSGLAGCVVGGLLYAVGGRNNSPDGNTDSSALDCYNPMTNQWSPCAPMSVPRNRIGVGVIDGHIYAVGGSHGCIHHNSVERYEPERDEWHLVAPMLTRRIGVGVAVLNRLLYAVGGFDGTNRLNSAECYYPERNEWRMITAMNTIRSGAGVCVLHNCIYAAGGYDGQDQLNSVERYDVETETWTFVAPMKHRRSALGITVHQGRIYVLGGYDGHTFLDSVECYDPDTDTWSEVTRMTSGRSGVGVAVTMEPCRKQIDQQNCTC
In short: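 Flag-tagged full-length Keap1 was preincubated with compound (3-fold series) for 2.25 h at 37 °C in Tris pH 8.0/MgCl2/NaCl/BSA/DTT/CHAPS. Biotin-Avi-NRF2 (added at 2.5 nM) was then bound for 1.25 h at 4 °C. Eu-streptavidin/anti-Flag-APC TR-FRET (665/615 nm) was read after 1 h at RT, and pIC50 came from a four-parameter fit.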

[2] = tested on: NQO1 specific enzyme activity in BEAS-2B cells (marker for NRF2 activation); test: BEAS-2B NQO1 MTT Assay; type: cell-based; conditions: compound incubated 48 hours, read-out: EC50 (NQO1 specific enzyme activity induction)
In short: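 BEAS-2B cells treated with compound for 48 h at 37 °C, then lysed; NQO1 activity in lysates measured kinetically by MTT reduction at A570 over 30 min. pEC50 from 3-parameter fit of ΔOD/min versus log concentration; lysate also taken for Cell Titer Glo.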

Molecule	IC50 [1] [nM]	EC50 [2] [nM]	EC50 ([2]; Homo sapiens) [nM]
1-(3′-((2-chlorocyclohexyl)methoxy)-[1,1′-biphenyl]-3-yl)-5-((1,2-trans)-2-(1-methyl-1H-1,2,3-triazol-4-yl)cyclopropyl)-1H-pyrazole-4-carboxylic acid [Example 186]	10 to 100	10 to 100	–
O=C(O)c1cnn(-c2cccc(-c3cccc(C(=O)N4C5CCCC4CCC5)c3F)c2)c1C1CC1 [Example 34, 1-[3-(3-{9-azabicyclo[3.3.1]nonane-9-carbonyl}-2-fluorophenyl)phenyl]-5-cyclopropyl-1H-pyrazole-4-carboxylic Acid]	10 to 100	–	100 to 1000
CCC[C@@H]1CCCCN1C(=O)c1cccc(-c2cccc(-n3ncc(C(=O)O)c3C3CC3)c2)c1F [Example 54e, 5-Cyclopropyl-1-{3-[2-fluoro-3-((2-S)-2-propylpiperidine-1-carbonyl)phenyl]phenyl}-1H-pyrazole-4-carboxylic Acid]	100 to 1000	–	100 to 1000
CC1CC(C)CN(C(=O)c2cccc(-c3cccc(-n4ncc(C(=O)O)c4C4CC4)c3)c2F)C1 (centres unmarked) [Example 53, 5-Cyclopropyl-1-[3′-(3,5-dimethyl-piperidine-1-carbonyl)-2′-fluoro-biphenyl-3-yl]-1H-pyrazole-4-carboxylic Acid]	10 to 100	–	100 to 1000

The next lines start with results.

IC50 [1] [nM]	Molecule	EC50 [2] [nM]	EC50 ([2]; Homo sapiens) [nM]
10 to 100	O=C(O)c1cnn(-c2cccc(-c3cccc(C(=O)N4CCCC5(CCCC5)C4)c3F)c2)c1C1CC1 [Example 35, 1-[3-(3-{7-Azaspiro[4.5]decane-7-carbonyl}-2-fluorophenyl)phenyl]-5-cyclopropyl-1H-pyrazole-4-carboxylic Acid]	–	100 to 1000
100 to 1000	CC(C)Oc1cccc(-c2cccc(-n3ncc(C(=O)O)c3C3CC3c3cn(C)nn3)c2)c1 (centres unmarked) [Example 59, 1-(3′-Isopropoxy-[1,1′-biphenyl]-3-yl)-5-(2-(1-methyl-1H-1,2,3-triazol-4-yl)cyclopropyl)-1H-pyrazole-4-carboxylic Acid]	–	1000 to 10000
10 to 100	O=C(O)c1cnn(-c2cccc(-c3cccc(C(=O)N4CCCCC4C4CCCC4)c3F)c2)c1C1CC1 (centres unmarked) [Example 33, 1-{3-[3-(2-Cyclopentylpiperidine-1-carbonyl)-2-fluorophenyl]phenyl}-5-cyclopropyl-1H-pyrazole-4-carboxylic Acid]	–	100 to 1000
